IC50 data for 12 compounds are collected here from patent US9045445B2, “Glycine transporter-1 inhibitors, methods of making them, and uses thereof” (Albany Molecular Research, Inc., priority 2010, dated 2015).

pIC50: −log10 of the molar value. Structures can show the parent of a compound that is named as a salt.

The assay has as its target T1, glycine transporter-1 (GlyT-1) (Homo sapiens, UniProt P48067).
T1 construct: JAR cells (ATCC#HTB-144), which endogenously express GlyT-1; host or cells: JAR human choriocarcinoma cells
T1 sequence (P48067 1-706): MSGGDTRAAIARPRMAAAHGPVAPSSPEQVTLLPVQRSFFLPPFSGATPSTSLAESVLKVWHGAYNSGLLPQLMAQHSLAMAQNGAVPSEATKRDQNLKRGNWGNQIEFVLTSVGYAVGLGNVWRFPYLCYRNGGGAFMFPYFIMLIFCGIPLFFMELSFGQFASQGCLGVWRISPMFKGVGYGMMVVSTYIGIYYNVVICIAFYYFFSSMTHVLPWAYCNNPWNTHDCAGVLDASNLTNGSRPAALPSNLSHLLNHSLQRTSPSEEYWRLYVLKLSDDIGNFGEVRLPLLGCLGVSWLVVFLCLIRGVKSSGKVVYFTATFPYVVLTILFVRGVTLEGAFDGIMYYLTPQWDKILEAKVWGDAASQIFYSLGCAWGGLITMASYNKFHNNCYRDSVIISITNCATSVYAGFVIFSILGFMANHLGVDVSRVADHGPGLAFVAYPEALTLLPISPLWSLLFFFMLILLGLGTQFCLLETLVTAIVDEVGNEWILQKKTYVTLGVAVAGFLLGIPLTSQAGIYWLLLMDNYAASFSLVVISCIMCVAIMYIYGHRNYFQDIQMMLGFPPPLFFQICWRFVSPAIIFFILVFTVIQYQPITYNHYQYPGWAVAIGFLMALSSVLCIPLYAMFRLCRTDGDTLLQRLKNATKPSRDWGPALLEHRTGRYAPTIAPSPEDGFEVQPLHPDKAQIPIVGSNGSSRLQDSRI
Description: [14C]glycine uptake assay in JAR cells endogenously expressing GlyT-1 (scintillation proximity). The note with it: JAR cells, [14C]glycine 5 μM, 3 hour incubation; read-out: GlyT-1 IC50. The class given is cell-based. Put shortly: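 Human choriocarcinoma JAR cells (endogenous GlyT-1) attached overnight, then pre-incubated 10 min at room temperature with compound in pH 7.4 Hepes uptake buffer containing 5 mM alanine and 0.75% DMSO. Uptake of 5 μM [14C]glycine over 3 h at 37 °C read by scintillation proximity; IC50 from four-parameter fit of nine-point curves.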
Background: In a scintillation proximity assay essentially only radioactivity close to the scintillant gives light.
As a reminder, the pIC50 is the IC50 on a negative log10 scale, so that one unit is a factor of ten. Take `CCCS(=O)(=O)N1CCN(C2(CNC(=O)c3c(F)cccc3OC(F)F)CCC(F)(F)CC2)CC1` [compound 250, N-((4,4-Difluoro-1-(4-(propylsulfonyl)piperazin-1-yl)cyclohexyl)methyl)-2-(difluoromethoxy)-6-fluorobenzamide Hydrochloride]: the pIC50 was 7.62. For the compound `CCS(=O)(=O)N1CCN(C2(CNC(=O)c3c(F)ccc(Cl)c3F)CCC(F)(F)CC2)CC1` [compound 213, 3-Chloro-N-((1-(4-(ethylsulfonyl)piperazin-1-yl)-4,4-difluorocyclohexyl)methyl)-2,6-difluorobenzamide Hydrochloride], the pIC50 was 6.06. The same measure for “N-((4,4-Difluoro-1-(1-(1- methyl-1H-1,2,3-triazol-4- ylsulfonyl)piperidin-4- yl)cyclohexyl)methyl)-2,4- bis(trifluoromethyl) benzamide [compound 274]”: 8.52; for `CCCS(=O)(=O)N1CCN(C2(CNC(=O)c3ccc(Cl)c(Cl)c3)CCCC2)CC1` [compound 76, 3,4-Dichloro-N-((1-(4-(propylsulfonyl)piperazin-1-yl)cyclopentyl)methyl) benzamide Hydrochloride]: 5.74; for `Cn1cnc(S(=O)(=O)N2CCN(C3(CNC(=O)c4ccccc4F)CCC(F)(F)CC3)CC2)c1` [compound 175, N-((4,4-Difluoro-1-(4-(1-methyl-1H-imidazol-4-ylsulfonyl)piperazin-1-yl)cyclohexyl)methyl)-2-fluorobenzamide Hydrochloride]: 7.24. The same measure for `COc1cccc(Cl)c1C(=O)NCC1(N2CCN(S(=O)(=O)c3cn(C)cn3)CC2)CCC(F)(F)CC1` [compound 173, 2-Chloro-N-((4,4-Difluoro-1-(4-(1-methyl-1H-imidazol-4-ylsulfonyl)piperazin-1-yl)cyclohexyl)methyl)-6-methoxybenzamide Hydrochloride]: 8.70; for `Cn1cnc(S(=O)(=O)N2CCN(C3(CNC(=O)c4ccc(Cl)cc4Cl)CCC(F)(F)CC3)CC2)c1` [compound 178, 2,4-Dichloro-N-((4,4-difluoro-1-(4-(1-methyl-1H-imidazol-4-ylsulfonyl)piperazin-1-yl)cyclohexyl)methyl) benzamide Hydrochloride]: 8.30. The same measure for `Cn1cnc(S(=O)(=O)N2CCN(C3(CNC(=O)c4c(F)cccc4C(F)(F)F)CCC(F)(F)CC3)CC2)c1` [compound 172, N-((4,4-Difluoro-1-(4-(1-methyl-1H-imidazol-4-ylsulfonyl)piperazin-1-yl)cyclohexyl)methyl)-2-fluoro-6-(trifluoromethyl)benzamide Hydrochloride]: 8.52. As to `CCCS(=O)(=O)N1CCN(C2(CNC(=O)c3ccccc3C)CCC(F)(F)CC2)CC1` [compound 134, N-((4,4-Difluoro-1-(4-(propylsulfonyl)piperazin-1-yl)cyclohexyl)methyl)-2-methylbenzamide Hydrochloride], the pIC50 was 7.15. The same measure for `CCCS(=O)(=O)N1CCN(C2(CNC(=O)c3ccc(C4CC4)cc3Cl)CCC(F)(F)CC2)CC1` [compound 247, 2-Chloro-4-cyclopropyl-N-((4,4-difluoro-1-(4-(propylsulfonyl)piperazin-1-yl)cyclohexyl)methyl) benzamide Hydrochloride]: 7.43. In the case of `CCS(=O)(=O)N1CCN(C2(CNC(=O)c3cc(F)c(F)cc3Cl)CCC(F)(F)CC2)CC1` [compound 214, 2-Chloro-N-((1-(4-(ethylsulfonyl)piperazin-1-yl)-4,4-difluorocyclohexyl)methyl)-4,5-difluorobenzamide Hydrochloride] it was 6.48; in that of `CCCS(=O)(=O)N1CCN(C2(CNC(=O)c3ccc(C(F)(F)F)cc3F)CCC(F)(F)CC2)CC1` [compound 150, N-((4,4-Difluoro-1-(4-(propylsulfonyl)piperazin-1-yl)cyclohexyl)methyl)-2-fluoro-4-(trifluoromethyl)benzamide Hydrochloride], 7.21.
